Consider 4 molecules from PMC11275175, “Cannabielsoin (CBE), a CBD Oxidation Product, Is a Biased CB1 Agonist” (Biomedicines, 2024).

Holding throughout (type): cell-based
The target in assay [1] is T1, CB1 receptor (Mus musculus, UniProt P47746).
T1 construct: gene Cnr1
Nature of the assay: PathHunter β-arrestin CHO-K1 agonist assay (EC80).

The target in assay [2] is T2, cannabinoid receptor type 1 (CB1) (Homo sapiens, UniProt P21554).
T2 construct: gene CNR1
Nature of the assay: cAMP Hunter CHO-K1 CNR1 Gi antagonist assay vs […] CP55940.

For assay [3], the target named is T1, CB1 receptor. As to the kind of experiment: PathHunter β-arrestin CHO-K1 antagonist assay vs CP55940.
Assay [4] deals with T2, cannabinoid receptor type 1 (CB1). Nature of the assay: cAMP Hunter CHO-K1 CNR1 Gi agonist assay (inhibition of forskolin-stimulated cAMP).

T1 sequence (P47746 whole entry): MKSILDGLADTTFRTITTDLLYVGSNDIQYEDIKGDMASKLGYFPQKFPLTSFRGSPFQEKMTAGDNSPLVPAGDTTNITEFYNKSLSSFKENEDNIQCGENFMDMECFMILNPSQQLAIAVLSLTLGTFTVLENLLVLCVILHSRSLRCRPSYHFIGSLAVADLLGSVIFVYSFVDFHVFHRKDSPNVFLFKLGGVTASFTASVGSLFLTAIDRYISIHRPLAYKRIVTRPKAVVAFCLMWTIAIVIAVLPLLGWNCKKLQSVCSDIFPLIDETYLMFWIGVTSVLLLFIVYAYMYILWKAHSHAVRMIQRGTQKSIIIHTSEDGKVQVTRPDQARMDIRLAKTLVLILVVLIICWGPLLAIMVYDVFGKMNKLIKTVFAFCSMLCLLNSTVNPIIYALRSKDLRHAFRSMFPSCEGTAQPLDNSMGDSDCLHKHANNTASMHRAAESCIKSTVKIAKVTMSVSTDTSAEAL
T2 sequence (P21554 whole entry): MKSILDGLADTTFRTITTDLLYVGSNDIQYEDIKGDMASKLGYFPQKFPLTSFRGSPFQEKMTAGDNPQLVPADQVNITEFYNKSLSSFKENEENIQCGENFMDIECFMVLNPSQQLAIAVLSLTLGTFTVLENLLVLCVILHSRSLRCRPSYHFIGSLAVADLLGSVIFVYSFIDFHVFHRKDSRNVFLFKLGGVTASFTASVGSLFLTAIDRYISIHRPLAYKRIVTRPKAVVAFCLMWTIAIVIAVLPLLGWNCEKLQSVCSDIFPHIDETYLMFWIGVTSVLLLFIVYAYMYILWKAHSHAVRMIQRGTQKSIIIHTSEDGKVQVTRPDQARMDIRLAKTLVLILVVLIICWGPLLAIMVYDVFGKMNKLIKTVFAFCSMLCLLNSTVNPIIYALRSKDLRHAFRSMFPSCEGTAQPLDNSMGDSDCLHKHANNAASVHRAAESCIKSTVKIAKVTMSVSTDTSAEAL

As usually defined, the EC80 is the concentration at which the effect reaches the 80% level. Read a low EC80 as greater potency. On CB1 receptor [1], `CCCCCCC(C)(C)c1ccc([C@@H]2C[C@H](O)CC[C@H]2CCCO)c(O)c1` (racemic) [CP55940] returned an EC80 of 0.0115 µM. That is a double-digit nanomolar value.

Take `Cc1c(C(=O)NN2CCCCC2)nn(-c2ccc(Cl)cc2Cl)c1-c1ccc(I)cc1` [AM251]: the “cAMP Hunter CHO-K1 CNR1 Gi antagonist assay vs 1.2 nM CP55940” value in assay [2] is listed as “the antagonist/inverse agonist of CB1, AM251, completely diminished the agonist signal of CP55940”.

The term IC50 denotes the point on the concentration scale where inhibition reaches its midpoint. Read a high IC50 as a need for much substance. For `Cc1c(C(=O)NN2CCOCC2)nn(-c2ccc(Cl)cc2Cl)c1-c1ccc(I)cc1` [AM281], on CB1 receptor [3], half-maximal inhibition (IC50) was put at 0.04 µM.

Broadly, the EC50 is the midpoint of the concentration-response curve. Low readings indicate an effect from little substance, high ones a need for much substance. In turn, `C=C(C)[C@@H]1CC[C@](C)(O)[C@H]2Oc3cc(CCCCC)cc(O)c3[C@@H]12` [S-CBE] gave an EC50 in assay [4] of 3.72 µM.
